Measured values published in patent US8129434B2, “Benzylphenyl cyclohexane derivatives and methods of use” (Theracos, Inc., priority 2007, dated 2012).

Key:
human SGLT2 = molecular target: T1, human SGLT2 (Homo sapiens, UniProt P31639); assay: Methyl-α-D-[U-14C]glucopyranoside uptake assay, cells stably expressing human SGLT2; type: cell-based; conditions: HEK293.ETN cells stably expressing human SGLT2; 25% human serum; 1.5 h at 37° C.; sodium-dependent uptake
T1 construct: A full-length cDNA clone expressing human SGLT2 (GenScript Corporation) was subcloned into Hind III and Not I sites of pEAK15 expression vector
T1 sequence (P31639 1-672): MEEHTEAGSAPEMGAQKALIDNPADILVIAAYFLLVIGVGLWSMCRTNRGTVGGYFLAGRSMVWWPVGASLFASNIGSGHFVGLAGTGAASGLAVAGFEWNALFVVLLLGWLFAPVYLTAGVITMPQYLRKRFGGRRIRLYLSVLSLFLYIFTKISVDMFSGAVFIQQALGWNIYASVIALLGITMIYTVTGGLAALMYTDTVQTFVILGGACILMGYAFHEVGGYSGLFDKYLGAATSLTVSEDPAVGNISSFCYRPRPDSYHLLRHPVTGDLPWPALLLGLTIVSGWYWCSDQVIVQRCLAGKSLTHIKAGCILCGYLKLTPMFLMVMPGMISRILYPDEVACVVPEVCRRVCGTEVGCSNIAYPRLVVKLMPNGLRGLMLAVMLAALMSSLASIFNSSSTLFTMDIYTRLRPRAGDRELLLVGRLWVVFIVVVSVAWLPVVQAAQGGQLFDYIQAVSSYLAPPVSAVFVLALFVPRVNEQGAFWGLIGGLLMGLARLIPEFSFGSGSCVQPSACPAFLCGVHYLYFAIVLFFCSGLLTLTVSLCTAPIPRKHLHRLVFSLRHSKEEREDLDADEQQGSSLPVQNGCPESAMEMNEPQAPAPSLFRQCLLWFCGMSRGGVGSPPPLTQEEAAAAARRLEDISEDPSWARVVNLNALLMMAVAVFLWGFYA
Text: A full-length cDNA clone expressing human SGLT2 (GenScript Corporation) was subcloned into Hind III and Not I sites of pEAK15 expression vector. Clones harboring the cDNA inserts were identified by restriction analysis.
Plasmid containing human SGLT2 was linearized with Nsi I and purified by agarose gel electrophoresis. Using Lipofectamine 2000 Transfection Reagent (Invitrogen Corporation), DNA was transfected into HEK293.ETN cells and cultured in Dulbecco's Modified Eagle Medium (DMEM) containing 10% fetal bovine serum (FBS) at 37° C. under 5% CO2 for 24 h. Transfectants were selected in the same growth medium supplemented with puromycin (Invitrogen Corporation) for two weeks. Puromycin-resistant cells were recovered and seeded on a fresh 96-well plate (single cell per well) and cultured in the presence of puromycin until cells became confluent. Puromycin-resistant clones were evaluated for SGLT2 activity in the methyl-α-D-[U-^14C]glucopyranoside uptake assay described below.
(§1) Cells expressing SGLT1 or SGLT2 were seeded on 96-well ScintiPlate scintillating plates (PerkinElmer, Inc.) in DMEM containing 10% FBS (1×10^5 cells per well in 100 μl medium) incubated at 37° C. under 5% CO2 for 48 h prior to the assay. Cells were washed twice with 150 μl of either sodium buffer (137 mM NaCl, 5.4 mM KCl, 2.8 mM CaCl2, 1.2 mM MgCl2, 10 mM tris(hydroxymethyl)aminomethane/N-2-hydroxyethylpiperazine-N′-ethanesulfonic acid [Tris/Hepes], pH 7.2) or sodium-free buffer (137 mM N-methyl-glucamine, 5.4 mM KCl, 2.8 mM CaCl2, 1.2 mM MgCl2, 10 mM Tris/Hepes, pH 7.2). Test compound in 50 μl each of sodium or sodium-free buffer containing 40 μCi/ml methyl-α-D-[U-^14C]glucopyranoside (Amersham Biosciences/GE Healthcare) and 25% human serum was added per well of a 96-well plate and incubated at 37° C. with shaking for either 2 h (SGLT1 assay) or 1.5 h (SGLT2 assay). Cells were washed twice with 150 μl of wash buffer (137 mM N-methylglucamine, 10 mM Tris/Hepes, pH 7.2) and methyl-α-D-[U-^14C]glucopyranoside uptake was quantitated using a TopCount scintillation counter (PerkinElmer, Inc.). Sodium-dependent glucopyranoside uptake was measured by subtracting the values obtained with sodium-free buffer from those obtained using sodium buffer (average of triplicate determinations).

human SGLT1 = molecular target: T2, human SGLT1 (Homo sapiens, UniProt P13866); assay: Methyl-α-D-[U-14C]glucopyranoside uptake assay, human SGLT1 expressing cells; type: cell-based; conditions: COS-7 cells transfected with human SGLT1; 25% human serum; 2 h at 37° C.; sodium-dependent uptake
T2 construct: Full-length human SGLT1 cDNA on pDream2.1 expression vector was obtained from GenScript Corporation; host or cells: COS-7 (American Type Culture Collection)
T2 sequence (P13866 1-664): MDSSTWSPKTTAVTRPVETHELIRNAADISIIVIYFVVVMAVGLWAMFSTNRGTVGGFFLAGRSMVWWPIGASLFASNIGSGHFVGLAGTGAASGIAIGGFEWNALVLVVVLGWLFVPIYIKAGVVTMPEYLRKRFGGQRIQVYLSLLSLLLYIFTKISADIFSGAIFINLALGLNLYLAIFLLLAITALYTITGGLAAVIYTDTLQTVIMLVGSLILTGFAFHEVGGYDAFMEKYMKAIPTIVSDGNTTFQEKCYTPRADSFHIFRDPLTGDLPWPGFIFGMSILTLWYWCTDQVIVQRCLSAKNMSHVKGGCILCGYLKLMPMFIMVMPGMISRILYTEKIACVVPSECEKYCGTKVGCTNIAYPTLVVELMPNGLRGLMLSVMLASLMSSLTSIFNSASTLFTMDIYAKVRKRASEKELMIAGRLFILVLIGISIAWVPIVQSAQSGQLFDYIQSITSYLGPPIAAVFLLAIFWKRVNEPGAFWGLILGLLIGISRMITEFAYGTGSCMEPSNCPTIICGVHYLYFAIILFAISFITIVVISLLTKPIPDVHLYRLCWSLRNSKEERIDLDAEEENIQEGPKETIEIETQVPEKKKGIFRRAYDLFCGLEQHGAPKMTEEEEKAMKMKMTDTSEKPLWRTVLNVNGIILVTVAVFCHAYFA
Method: Full-length human SGLT1 cDNA on pDream2.1 expression vector was obtained from GenScript Corporation and propagated in Escherichia coli strain DH5α using Luria-Bertani (LB) medium containing ampicillin. Plasmid DNA was isolated using the QIAGEN Plasmid Midi Kit (QIAGEN Inc.). […] Transfected cells were stored in DMEM containing 10% dimethyl sulfoxide (DMSO) at −80 ° C.
as §1

CCCc1ccc(Cc2cc([C@H]3[C@H](O)[C@@H](O)[C@H](O)[C@@H](CO)[C@@H]3O)ccc2Cl)cc1 [Compound 11, (1R,2R,3S,4R,5R,6S)-4-(4-chloro-3-(4-propylbenzyl)phenyl)-6-(hydroxymethyl)cyclohexane-1,2,3,5-tetraol]
IC50 (human SGLT2): < 1000 nM | IC50 (human SGLT1): 1000 to 10000 nM

CC(=O)c1ccc(Cc2cc([C@H]3[C@H](O)[C@@H](O)[C@H](O)[C@@H](CO)[C@@H]3O)ccc2Cl)cc1 [Compound 39, 1-(4-(2-chloro-5-((1R,2S,3R,4R,5S,6R)-2,3,4,6-tetrahydroxy-5-(hydroxymethyl)cyclohexyl)benzyl)phenyl)ethanone]
IC50 (human SGLT2): < 1000 nM | IC50 (human SGLT1): 1000 to 10000 nM

C=C1[C@H](CO)[C@@H](O)[C@H](O)[C@@H](O)[C@@H]1c1ccc(Cl)c(Cc2ccc(CC)cc2)c1 [Compound 35, (1R,2R,3S,4S,6R)-4-(4-chloro-3-(4-ethylbenzyl)phenyl)-6-(hydroxymethyl)-5-methylenecyclohexane-1,2,3-triol]
IC50 (human SGLT2): < 1000 nM | IC50 (human SGLT1): 1000 to 10000 nM

CC(O)c1ccc(Cc2cc([C@H]3[C@H](O)[C@@H](O)[C@H](O)[C@@H](CO)[C@@H]3O)ccc2Cl)cc1 (stereo partly drawn) [Compound 40, (1R,2R,3S,4R,5R,6S)-4-(4-chloro-3-(4-(1-hydroxyethyl)benzyl)phenyl)-6-(hydroxymethyl)cyclohexane-1,2,3,5-tetraol]
IC50 (human SGLT2): < 1000 nM | IC50 (human SGLT1): 1000 to 10000 nM

CCc1ccc(Cc2cc([C@H]3[C@H](O)[C@@H](O)[C@H](O)[C@@H](CO)[C@@H]3O)ccc2Cl)cc1 [5 (R = Et), (1R,2R,3S,4R,5R,6S)-4-(4-chloro-3-(4-ethylbenzyl)phenyl)-6-(hydroxymethyl)cyclohexane-1,2,3,5-tetraol]
IC50 (human SGLT2): < 1000 nM | IC50 (human SGLT1): < 1000 nM

CCc1ccc(Cc2cc([C@H]3[C@H](O)[C@@H](O)[C@H](O)[C@@H](COC(C)=O)[C@@H]3O)ccc2Cl)cc1 [Compound 17, ((1S,2R,3R,4S,5R,6R)-3-(4-chloro-3-(4-ethylbenzyl)phenyl)-2,4,5,6-tetrahydroxycyclohexyl)methyl acetate]
IC50 (human SGLT2): < 1000 nM | IC50 (human SGLT1): 1000 to 10000 nM

OC[C@@H]1[C@@H](O)[C@H](O)[C@@H](O)[C@H](c2ccc(Cl)c(Cc3ccc(C4CCCCC4)cc3)c2)[C@H]1O [Compound 12, (1R,2R,3S,4R,5R,6S)-4-(4-chloro-3-(4-cyclohexylbenzyl)phenyl)-6-(hydroxymethyl)cyclohexane-1,2,3,5-tetraol]
IC50 (human SGLT2): < 1000 nM | IC50 (human SGLT1): > 10000 nM

OC[C@@H]1[C@@H](O)[C@H](O)[C@@H](O)[C@H](c2ccc(Cl)c(Cc3ccc(C4CC4)cc3)c2)[C@H]1O [Compound 10, (1R,2R,3S,4R,5R,6S)-4-(4-chloro-3-(4-cyclopropylbenzyl)phenyl)-6-(hydroxymethyl)cyclohexane-1,2,3,5-tetraol]
IC50 (human SGLT2): < 1000 nM | IC50 (human SGLT1): < 1000 nM

CCc1ccc(Cc2ccccc2O[C@H]2[C@H](O)[C@@H](O)[C@H](O)[C@@H](CO)[C@@H]2O)cc1 [Compound 30, (1R,2S,3R,4R,5S,6R)-4-(2-(4-ethylbenzyl)phenoxy)-6-(hydroxymethyl)cyclohexane-1,2,3,5-tetraol]
IC50 (human SGLT2): < 1000 nM | IC50 (human SGLT1): > 10000 nM

CCc1ccc(Cc2cc([C@H]3[C@H](O)[C@@H](O)[C@H](O)[C@@H](CO)C34CC4)ccc2Cl)cc1 [Compound 37, (4S,5S,6R,7R,8R)-4-(4-chloro-3-(4-ethylbenzyl)phenyl)-8-(hydroxymethyl)spiro[2.5]octane-5,6,7-triol]
IC50 (human SGLT2): < 1000 nM | IC50 (human SGLT1): 1000 to 10000 nM

OC[C@H]1C=C(c2ccc(Cl)c(Cc3ccc(OCC#CC4CC4)cc3)c2)[C@H](O)[C@@H](O)[C@@H]1O [Compound 13, (1R,2S,3S,6R)-4-(4-chloro-3-(4-(3-cyclopropylprop-2-ynyloxy)benzyl)phenyl)-6-(hydroxymethyl)cyclohex-4-ene-1,2,3-triol]
IC50 (human SGLT2): < 1000 nM | IC50 (human SGLT1): > 10000 nM

CCOc1ccc(Cc2cc([C@H]3[C@H](O)[C@@H](O)[C@H](O)[C@@H](CO)[C@@H]3O)ccc2Cl)cc1 [Compound 9, (1R,2R,3S,4R,5R,6S)-4-(4-chloro-3-(4-ethoxybenzyl)phenyl)-6-(hydroxymethyl)cyclohexane-1,2,3,5-tetraol]
IC50 (human SGLT2): < 1000 nM | IC50 (human SGLT1): 1000 to 10000 nM
